The record followed here is patent US20240400572A1, “COMPOUNDS AND METHODS FOR TREATING CANCERS THAT ARE MGMT DEFICIENT REGARDLESS OF MMR STATUS” (Yale University, priority 2021, published 2024).

For the experiment, the system named is FANCD2 ubiquitination in LN229 MGMT+/−, MMR+/− cells. Description: Western blot analysis of FANCD2 ubiquitination. The format is cell-based, human. How it is done:
FIGS. ZS9A-ZS9G. […] (FIG. ZS9A) Representative images of micronuclei identification. (FIG. ZS9B) Validation of micronuclei identification using olaparib as positive control. Change in percent cells with 1 micronuclei from baseline (DMSO control) after treatment with olaparib ([…]) for 48 h in LN229 MGMT+/−, MMR+/− cells. Columns, mean; error bars, SD; […] technical replicates; **** p<0.0001. […] (FIG. ZS9G) Western blot analysis of FANCD2 ubiquitination in LN229 MGMT+/−, MMR+/− cells and PD20 FANCD2-deficient cells, complemented with empty vector (FANCD2+EV), wildtype FANCD2 (PD20+FD2) or ubiquitination-mutant FANCD2 (PD20+KR). The % FANCD2 ubiquitination (% FANCD2 Ub.) is quantified as the background-corrected integrated band intensity of the upper band divided by the sum of the background-corrected integrated band intensities of the upper and lower bands. The fold change in % FANCD2 ubiquitination is presented for each cell line relative to DMSO-treated cells. Vinculin serves as loading control. For (FIG. ZS9D), (FIG. ZS9E), and (FIG. ZS9F), points, mean; error bars, SD; n=3 technical replicates.
Western Blotting. […] Where shown, bands were quantified using ImageJ software.
Background: Immunoblotting shows a protein as a band on a membrane.

Molecules are shown by their SMILES.

For the compound `NC(=O)c1ncn2c(=O)n(CCF)nnc12` [KL-50, 3-(2-fluoroethyl)-4-oxo-3H,4H-imidazo[4,3-d][1,2,3,5]tetrazine-8-carboxamide], the “FANCD2 ubiquitination (in words)” value is recorded as “specifically in MGMT− cells”.

In the case of `Cn1nnc2c(C(N)=O)ncn2c1=O` [TMZ, temozolomide, reference compound], the “FANCD2 ubiquitination (in words)” value is given as “induced FANCD2 ubiquitination but only in MGMT−/MMR+ cells”.
